Results published in US8058437B2, “(Pyrroloquinoxalinyl) pyrazinecarbohydrazide-oxalic acid co-crystal for treatment of cancer and other diseases” (Novelix Pharmaceuticals, Inc., priority 2008, dated 2011).
“And” between values parts separate entries of the source, which are not always exact repeats. Identical values can stand only once. “Also recorded” adds a separate entry of the source. Like-named read-outs stand apart in the source and are kept apart here.

Key:
[1] = Pharmacokinetic experiments in rats (IV, oral suspension, oral solution); format: in vivo; settings: rat; for bioavailability: versus mean IV AUCINF, adjusted for dose
Description: The oral suspension formulation was prepared by suspending the test article in 5% PEG-200/95% of a 0.5% solution of methylcellulose. The concentration of the test article was such that a dosing volume of 10 mL/kg delivered the intended dose level. The oral solution formulations of NVX-144 and NVX-412 were prepared by dissolving the test article in 10% by volume dimethyl acetamide, followed by 60% by volume PEG-400, and then adding slowly a solution of 30% Captisol® in 50 mM lactic acid to provide the remaining 30% of volume. The concentration of the test article was such that a dosing volume of 10 mL/kg delivered the intended dose level. The IV formulation of NVX-412 was prepared by dissolving the test article in 10% by volume dimethyl acetamide, followed by 10% by volume PEG-400, and then adding slowly a solution of 10% Captisol® in 50 mM lactic acid to provide the remaining 80% of volume. The concentration of the test articles was such that a dosing volume of 2.5 mL/kg delivered the intended dose level. The doses administered were based on the body weight of each animal taken shortly before dosing. The formulations were used immediately after preparation.
A total of 15 rats were assigned to the study. Five groups of three male rats each comprised the study. Each group was treated once by oral gavage or intravenous injection via the tail vein as specified in Table 3 below.
The animals were fasted overnight prior to dosing and the feed returned approximately 2 hours post-dosing. The dose for each animal was based on the most recent body weight. Oral doses were administered by gavage. Animals received 10 mL/kg per single oral dose. Intravenous doses were administered by tail vein injection. The dose for each animal was based on the most recent body weight. Animals were dosed at 2.5 mL/kg per single intravenous dose.
Blood was collected from the animals in Groups 1 through 5 for pharmacokinetic analysis. Approximately 0.3 mL of blood was collected in potassium EDTA tubes via the orbital plexus at four time points (30 minutes, 1 hour, 4 hours, and 8 hours post-dose) from each rat treated by the oral route, and the blood samples were processed to prepare plasma. Blood was collected at four time points (5 minutes, 30 minutes, 1 hour, and 2 hours post-dose) from each rat treated by the intravenous route, and the blood samples were processed to prepare plasma. Animals were terminated (without necropsy) following their final sample collection.
The whole blood samples were centrifuged (˜1500×g) for a minimum of 10 minutes in a refrigerated centrifuge (set at ˜5° C.). Plasma was prepared and transferred within 30 minutes of blood collection/centrifugation to appropriately labeled tubes. The tubes were then frozen and stored in the dark at ≦−70° C. until analysis. The plasma samples were analyzed by LC-MS/MS to determine the plasma concentrations of NVX-144 and NVX-412. Pharmacokinetic analysis of the plasma concentration data was conducted using non-compartmental analysis with WinNonlin Version 4.1.

[2] = Salt formation experiments / physical characteristics of solid forms; format: physicochemical; settings: suitable for pharmaceutical formulation
Description: Thus, a series of experiments was conducted to assess the preparation of NVX-144 salts of acids other than hydrochloric acid as possible novel compounds better suited to pharmaceutical preparations. […] As expected, NVX-144 base readily formed salts with strong organic acids.
Although oxalic acid co-crystals are rare, Trask et al. have reported a co-crystal of caffeine with oxalic acid (see Trask et al., “Pharmaceutical Cocrystallization: Engineering a Remedy for Caffeine Hydration,” Crystal Growth & Design, 5, 1013-21 (2005)).
Thus NVX-144 would not be expected to form a salt with oxalic acid, a relatively strong dicarboxylic acid.

[3] = male, plasma, po, 20 mg/kg, Group 5, PO-Solution 20 mg/kg, individual animals
[4] = Group 3, PO-Suspension 20 mg/kg, Mean N=2
[5] = Group 3, PO-Suspension 20 mg/kg, individual animals
[6] = Group 5, PO-Solution 20 mg/kg, Mean N=3
[7] = Group 5, PO-Solution 20 mg/kg, individual animals
[8] = IV 5 mg/kg, individual animals, 5 mg/kg

SMILES: O=C(NNc1nc2cc(F)ccc2n2cccc12)c1cnccn1.O=C(O)C(=O)O [NVX-412, N′-(7-fluoropyrrolo[1,2a]quinoxalin-4-yl)pyrazine-2-carbohydrazide oxalic acid co-crystal]
- AUC [1, 3]: 2390 ng·h/mL
- AUC(0-inf) [1, 3]: 2400 ng·h/mL
- Cmax ([1]; male, plasma, po, 20 mg/kg, Group 5, PO-Solution 20 mg/kg, individual animals, read-out: Cmax): 732 ng/mL
- half-life ([1]; male, plasma, po, 20 mg/kg, Group 5, PO-Solution 20 mg/kg, individual animals, read-out: T ½ (converted)): 1.18 h
- Tmax ([1]; male, plasma, po, 20 mg/kg, Group 5, PO-Solution 20 mg/kg, individual animals, read-out: Tmax): 0.5 to 1 h
- bioavailability ([1]; male, plasma, po, 20 mg/kg, Group 5, PO-Solution 20 mg/kg, individual animals, read-out: Bioavailability): 45.7%
- plasma concentration ([1]; Group 3, PO-Suspension 20 mg/kg, 0.5 hr, individual animals): 386.99 ng/mL and 573.34 ng/mL
- plasma concentration ([1]; Group 3, PO-Suspension 20 mg/kg, 1 hr, individual animals): 464.23 ng/mL and 584.12 ng/mL
- plasma concentration ([1]; Group 3, PO-Suspension 20 mg/kg, 4 hr, individual animals): 181.80 ng/mL and 249.34 ng/mL
- plasma concentration ([1]; Group 3, PO-Suspension 20 mg/kg, 8 hr, individual animals): 13.07 ng/mL and BLQ (BLQ = Below the Limit of Quantitation <5 ng/mL) and 5.48 ng/mL
- AUC % Extrap [1, 4]: 0.68%
- AUCINF [1, 4]: 2306.62 ng·h/mL
- T ½ [1, 4]: 1.15 h
- Cmax ([1]; Group 3, PO-Suspension 20 mg/kg, Mean N=3): 524.61 ng/mL
- AUC % Extrap [1, 5]: 1.00% and 0.36%
- AUCINF [1, 5]: 2200.54 ng·h/mL
- AUCall [1, 5]: 1642.21 ng·h/mL and 2192.52 ng·h/mL
- Cmax [1, 5]: 464.23 ng/mL and 584.12 ng/mL
- T ½ [1, 5]: 1.02 h
- bioavailability [1, 5]: 41.9%
- plasma concentration ([1]; Group 5, PO-Solution 20 mg/kg, 0.5 hr, individual animals): 635.82 ng/mL and 509.37 ng/mL
- plasma concentration ([1]; Group 5, PO-Solution 20 mg/kg, 1 hr, individual animals): 686.88 ng/mL and 489.07 ng/mL
- plasma concentration ([1]; Group 5, PO-Solution 20 mg/kg, 4 hr, individual animals): 171.97 ng/mL and 298.24 ng/mL
- plasma concentration ([1]; Group 5, PO-Solution 20 mg/kg, 8 hr, individual animals): 8.53 ng/mL and 5.14 ng/mL and 34.89 ng/mL
- AUC % Extrap [1, 6]: 1.73%
- Cmax [1, 6]: 642.71 ng/mL
- T ½ [1, 6]: 1.37 h
- AUC % Extrap [1, 7]: 0.61% and 0.34% and 4.24%
- AUCINF [1, 7]: 2139.39 ng·h/mL and 2322.68 ng·h/mL
- AUCall [1, 7]: 2132.13 ng·h/mL and 2224.16 ng·h/mL
- Cmax [1, 7]: 686.89 ng/mL and 509.37 ng/mL
- T ½ [1, 7]: 0.98 h and 1.96 h
- Tmax [1, 7]: 0.5 h
- bioavailability [1, 7]: 40.7% and 44.2%
- plasma concentration ([1]; IV 5 mg/kg, 0.083 h, individual animals, 5 mg/kg): 1716.72 ng/mL and 2001.77 ng/mL
- plasma concentration ([1]; IV 5 mg/kg, 0.5 h, individual animals, 5 mg/kg): 481.82 ng/mL and 461.19 ng/mL
- plasma concentration ([1]; IV 5 mg/kg, 1 h, individual animals, 5 mg/kg): 278.84 ng/mL and 253.02 ng/mL
- plasma concentration ([1]; IV 5 mg/kg, 2 h, individual animals, 5 mg/kg): 185.19 ng/mL and 143.93 ng/mL
- AUC % Extrap ([1]; IV 5 mg/kg, Mean of 3): 18.74%
- AUCINF ([1]; IV 5 mg/kg, Mean of 3, 5 mg/kg): 1314.5 ng·h/mL
- Cl ([1]; IV 5 mg/kg, Mean of 3, 5 mg/kg): 63.43 mL/min/kg and 63.4273 mL/min/kg
- Cmax ([1]; IV 5 mg/kg, Mean of 3, 5 mg/kg): 1842.5 ng/mL
- T ½ ([1]; IV 5 mg/kg, Mean of 3, 5 mg/kg): 1.03 h
- Vss ([1]; IV 5 mg/kg, Mean of 3, 5 mg/kg): 3.98512 L/kg
- AUC % Extrap [1, 8]: 18.44% and 22.68% and 15.1%
- AUCINF [1, 8]: 1349.72 ng·h/mL and 1277.84 ng·h/mL
- AUCall [1, 8]: 1043.56 ng·h/mL and 1084.89 ng·h/mL
- Cl [1, 8]: 61.7413 mL/min/kg and 65.2145 mL/min/kg
- Cmax [1, 8]: 1716.7 ng/mL and 2001.8 ng/mL
- T ½ [1, 8]: 1.15 h and 0.93 h
- Vss [1, 8]: 4.55297 L/kg and 3.44635 L/kg
- oral absorption ([1]; administered as a solution or suspension): moderate
- difference in oral absorption between NVX-412 and NVX-144 ([1]; dosed as a solution): no significant difference
- oral absorption / bioavailability of NVX-412 over NVX-144 free base ([1]; dosed as a suspension): more bioavailable; also recorded: slight improvement
- hydrate formation / stability [2]: forms stable mono- and di-hydrates
